Earlier results as cited in patent US11612669B2, “Disinfection method and apparatus” (University of Washington, priority 2020, dated 2023).

Tested on: microbes, viruses, and bacteria in blood plasma
Details: one micromolar solution, white light at 45,000 lux for more than one hour

## CN(C)c1ccc2nc3ccc(=[N+](C)C)cc-3sc2c1 [methylene blue]
  inactivation of microbes, viruses, and bacteria: can inactivate microbes, viruses, and bacteria
